Legend:
[1] = target: Human serotonin 5HT2B receptor (Homo sapiens, UniProt P41595); test: Competitive radioligand binding to 5HT2B receptor membranes
Description: Human serotonin 5HT2B receptor membrane preparations were divided into aliquots. On the day of the assay, membranes were diluted at 1:200 in incubation buffer. […] To each well was added 150 μL membrane preparation, 50 μL test compound, non-specific compound, or buffer alone, as well as 50 μL radioligand. The plate was incubated at 35° C. for 90 minutes with gentle agitation. […] For each concentration of drug, non-specific binding was subtracted from total binding to give specific binding. […] Ki was subsequently calculated using the ChengPrusoff equation.

[2] = previous reports (Hibicke 2020; Yang 2013; Tizabi 2012); cited from earlier work
[3] = Rat Forced Swim Test (FST); type: in vivo
From the text: The Forced Swim Test (FST) is a classic, and the most used preclinical behavioral assay to screen compounds with antidepressant-like activity and has high predictive and face validity (Porsolt et al. (1977) Nature 266:730; Borsini and Meli (1988) Psychopharmacology 94:147). The premise of the FST is that when rats are placed into a cylinder filled with water, they will initially try to escape, but over time will become immobile. This increased immobility reflects behavioral despair, modeling a depressive-like state.
Forced Swim Test (EST): In the FST trial, rats were placed in a circular plexiglass container filled with water, with no means of escape. Water temperature was maintained at 22-25° C. and changed for every animal. After an acclimation period, rats were timed for inactivity (failure to struggle), activity, swim time and climbing time. Day 1 consisted of a 15 min acclimation trial, and Day 2 (24 h later) consisted of the 5 min test. A time sampling procedure was employed where animals were observed every 5 sec and scored for immobility, swimming, or climbing. Fluoxetine (10 mg/kg, IP, Sigma Aldrich) or 0.9% sterile saline vehicle (vehicle 3× group) were administered 23.5, 5, and 1 h before testing in the FST. […] The experimenter was blinded to treatment.
Forced Swim Test: In the FST trial, rats were placed in a circular plexiglass container filled with water, with no means of escape. Water temperature was maintained at 22-25° C. and changed for every animal. After an acclimation period, rats were timed for inactivity (failure to struggle), activity, swim time and climbing time. Day 1 consisted of a 15 min acclimation trial, and Day 2 (24 h later) consisted of the 5 min test. A time sampling procedure was employed where animals were observed every 5 sec and scored for immobility, swimming, or climbing. Fluoxetine (10 mg/kg, IP, Sigma Aldrich) or 0.9% sterile saline vehicle (vehicle 3× group) were administered 23.5, 5, and 1 h before testing in the FST. 2C-B (2.5, 10, or 20 mg/kg, IP, Cayman Chemical) or 0.9% saline vehicle (vehicle 1× group) were administered 30 min prior to FST testing. The experimenter was blinded to treatment.
Drug Treatment: Fluoxetine (10 mg/kg, IP, Sigma Aldrich) or 0.9% sterile saline vehicle were administered 23.5, 5, and 1 h before testing in the FST. […] Control animals received fluoxetine alone, methylone alone, or saline vehicle.
Forced Swim Test: In the FST trial, rats were placed in a circular plexiglass container filled with water, with no means of escape. Water temperature was maintained at 22-25° C. and changed for every animal. After an acclimation period, rats were timed for inactivity (failure to struggle), activity, swim time and climbing time. The experimenter and scorer were blind to treatment group. Day 1 consisted of a 15 min acclimation trial, and Day 2 (24 h later) consisted of the 5 min test. A time sampling procedure was employed where animals were observed every 5 sec and scored for immobility, swimming, or climbing.
The FST was performed and scored by an experimenter blind to treatment group according to standard protocols and based on a “modified FST” procedure (Slattery and Cryan (2012) Nat Protoc, 7:1009). Briefly, rats were placed in a circular plexiglass container (29.2 cm diameter, 49.5 cm height) filled with water to a depth of 30 cm so rats could not support themselves by touching the bottom of the tank. Water was maintained at 22-25° C. and was changed for every animal. Day 1 (Training) consisted of a 15 min acclimation trial, and Day 2 (Testing, 24 h later) consisted of the 5 min test. A time sampling procedure was employed where animals were observed every 5 seconds for the duration of the test session (60 counts or 5 minutes) and scored for immobility (defined as the failure to struggle), swimming (defined as a circular movement around the tank), or climbing (defined as an upwards escape behavior). […]

5-HT/5-HIAA uptake sites = conditions: (±)-MBDB·HCl 25 mg/kg IP every 12 hours for 4 days; cited from earlier work
[4] = Mouse fear extinction paradigm (PTSD model); type: in vivo; conditions: 5 mg/kg IP, day 2
From the text: (FIG. 9A) Schematic of experimental design. A single CS-US (tone-shock) pairing on day 1 was followed by 6 CS presentations in a novel context (context B). […] On day 3, the time spent freezing to the CS was quantified. […] (FIG. 9C) No locomotor changes were observed on day 3 (t(26)=1.073, p>0.05). Data are mcan+/−SEM.
FIGS. 10A-10B: MBDB improves fear extinction in a PTSD mouse model. A single CS-US (tone-shock) pairing on day 1 was followed by 6 conditioned stimulus (CS) presentations in a novel context (context B). MBDB or saline vehicle was injected 30 min prior to extinction training on day 2. The time spent freezing to the CS was quantified on day 2. […] Data are mean+/−SEM. N=10 for MBDB group (5 mg/kg, IP) and N=16 for saline control group. **p<0.01 vs. vehicle control group.
Effective PTSD treatments facilitate the disassociation between a traumatic memory and the patient's fear response, making cues for the traumatic memory evoke less of a fear response. This is modeled in the mouse fear extinction paradigm (see FIG. 9A) which takes place over 3 days. […] On day 3 (extinction recall), the mice are “asked” if that tone (CS) still elicits a fearful response, as measured by the time spent freezing when the tone is presented. […]

Open field test (OFT) = type: in vivo, rat; conditions: 0.5-30 mg/kg IP, 30 minutes before 30-min test
Description: Method: Consecutive beam breaks and/or video-tracking of time spent in the center versus periphery of the open field are measured. Also measured are parameters such as distance traveled and ambulatory activity (horizontal and vertical) for the duration of the test session.
The open field test (OFT) capitalizes on a rodent's innate fear of open spaces to assess anxiety-like behavior. More time spent in the center of an open field reflects an anxiolytic (anti-anxiety) effect.
Locomotor activity was also measured in the OFT.
To investigate whether MBDB has an anti-anxiety (anxiolytic) effect, rats were dosed with MBDB (0.5-30 mg/kg, IP) or vehicle (saline) and 30-minutes later were tested in the open field for 30 minutes. This anxiety test capitalizes on a rodents' innate fear of wide-open spaces and propensity to hug the walls when placed into the open field. Therefore, a drug that increases the time spent in the center of the open field has anxiolytic activity and predicts utility for treating anxiety in humans.

[5] = Reserpine-induced fibromyalgia model, vonFrey test; type: in vivo, rat; conditions: 2C-B 10 and 20 mg/kg; 60-min post-injection
Description: In this Example, male Sprague Dawley rats are tested in a behavioral model of FMA based on the protocol from Nakagura et al. (2009) Pain 146:26. This model uses three daily doses of reserpine (1 mg/kg, SC) or 0.5% acetic acid vehicle to reduce pain thresholds (i.e., increase pain perception) in the Von Frey Test (vFT, procedure outlined below).
Von Frey Test (vFT) procedure: Increasing pain thresholds in this test are consistent with a reduction in pain perception. Prior to the start of dosing, rats are tested for their baseline mechanical pain threshold. For von Frey measurements, animals are placed into wire bottom cubicles with opaque Plexiglas walls, allowing access to the underside of their paws. Animals are habituated to this environment for at least 30 minutes before the start of the von Frey filament application. Static allodynia is measured using Semmes-Weinstein von Frey filaments (Stoelting, Wood Dale, IL). Mechanical allodynia is tested by touching the plantar surface of the animals' left and right hind paws with von Frey filaments which deliver a calibrated amount of force. Each von Frey filament is presented perpendicularly to the plantar surface for approximately 6 seconds of constant application in either ascending or descending strength in a modified up-and-down method (Chaplan et al. (1994) J Neurosci. Meth. 53:55). Stimulation is presented at intervals of several seconds, allowing for apparent resolution of any behavioral responses to previous stimuli. A positive response is noted if the paw is sharply withdrawn. Flinching immediately upon removal of the hair is also considered a positive response. Ambulation is considered an ambiguous response, and, in such cases, the stimulus is repeated.
VonFrey measurements: Animals were placed into wire bottom cubicles with opaque Plexiglas walls, allowing access to the underside of their paws. […] Static allodynia was measured using Semmes-Weinstein von Frey filaments (Stoelting, Wood Dale, IL). […] The average hindpaw thresholds were determined 60-min post-injection. […]

[6] = Cisplatin chemotherapy-induced peripheral neuropathy (CIPN) model, VonFrey test; type: in vivo, mouse
Description: Methods: Male C57Bl/6 mice aged 12-16 weeks were used. Cisplatin (2.5 mg/kg) or vehicle was administered on days 1-5 and 11-15.
Vehicle, sub-chronic 2C-B (5 mg/kg once daily days 17-23) or acute 2C-B (20 mg/kg once on day 17) was then administered IP (N=16-18/group). VonFrey testing took place on day 17 (30 min post-dose) and days 21 and 24 (pre-dose) to monitor the effects of 2C-B in cisplatin treated animals, compared with animals receiving cisplatin+vehicle or vehicle+vehicle.
For von Frey measurements, animals were placed into wire bottom cubicles with opaque Plexiglas walls, allowing access to the underside of their paws. Animals were habituated to this environment for at least 30 minutes before the start of the von Frey filament application. Static allodynia was measured using Semmes-Weinstein von Frey filaments (Stoelting, Wood Dale, IL). Mechanical allodynia was tested by touching the plantar surface of the animals' right and left hind paws with von Frey filaments which deliver a calibrated amount of force (0.07, 0.16, 0.4, 0.6. 1.0, 2.0, 4.0, 6.0 g). Each von Frey filament was presented perpendicularly to the plantar surface for approximately 6 seconds of constant application in either ascending or descending strength in a modified up-and-down method (Chaplan et al. (1994) J Neurosci. Meth. 53:55). […]

Sequence of Human serotonin 5HT2B receptor (P41595 whole entry): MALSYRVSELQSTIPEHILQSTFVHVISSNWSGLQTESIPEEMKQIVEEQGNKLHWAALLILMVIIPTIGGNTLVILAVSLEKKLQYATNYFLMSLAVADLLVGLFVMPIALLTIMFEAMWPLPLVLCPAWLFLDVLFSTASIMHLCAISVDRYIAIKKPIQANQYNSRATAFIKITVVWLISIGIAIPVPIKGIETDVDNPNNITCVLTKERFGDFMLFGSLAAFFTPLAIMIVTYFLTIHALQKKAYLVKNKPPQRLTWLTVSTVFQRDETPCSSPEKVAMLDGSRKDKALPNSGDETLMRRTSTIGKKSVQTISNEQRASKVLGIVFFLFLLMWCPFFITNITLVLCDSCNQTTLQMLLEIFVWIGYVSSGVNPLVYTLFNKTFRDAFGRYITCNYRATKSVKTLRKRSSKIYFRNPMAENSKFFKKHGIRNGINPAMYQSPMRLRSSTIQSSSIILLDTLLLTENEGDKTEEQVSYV

CC(N)Cc1ccc2c(c1)OCO2 (stereo not shown) [MDA, reference compound]
Times greater affinity for the 5HT2B receptor compared with methylone [1]: 37 times

CCN(CC)C(=O)[C@@H]1C=C2c3cccc4[nH]cc(c34)C[C@H]2N(C)C1 [LSD, lysergic acid-N,N-diethylamide]
Reduction in immobility in the FST [2]: 38%

CNCCC(Oc1ccc(C(F)(F)F)cc1)c1ccccc1 (stereo not shown) [fluoxetine, reference compound]
Swimming behavior ([3]; doses as worded): significantly increased swimming behavior

CCC(Cc1ccc2c(c1)OCO2)NC (racemic) [MBDB, N-methyl-1-(1,3-benzodioxol-5-yl)-2-aminobutane]
Serotonergic terminals in cortex and hippocampus destroyed (5-HT/5-HIAA uptake sites): 55-60% | Immobility ([3]; 5-30 mg/kg IP, 30 min before test): significantly reduced immobility | Extinction acquisition [4]: improved extinction acquisition on the first trial of extinction training on day 2 | Increase in time spent in the center vs. control (Open field test (OFT)): ~40%

CNCC[C@H](Oc1cccc2ccccc12)c1cccs1 [Duloxetine, reference compound]
Animals with maximal (complete) reversal of reserpine-induced pain sensitivity [5]: 44%

COc1cc(CCN)c(OC)cc1Br [2C-B, 4-Bromo-2,5-dimethoxyphenethylamine]
Climbing behavior ([3]; doses as worded): Climbing was significantly decreased only in the high-dose group | Swimming behavior ([3]; doses as worded): significant increase in swimming | Effect of repeated doses ([6]; 5 mg/kg once daily days 17-23): sustained beneficial effect | Pain thresholds in cisplatin-treated animals ([6]; single dose 5 or 20 mg/kg IP, day 17): Pain thresholds were significantly increased within 30 min of a single dose | Animals with maximal (complete) reversal of reserpine-induced pain sensitivity [5]: 100%
